Consider four molecules from patent US5679638A, “Method for treating a tumor with a chemotherapeutic agent” (Biopure Corporation, priority 1993, dated 1997).

One test deals with Lewis lung carcinoma. The test is described as follows: Lewis lung carcinoma growth delay. In kind it is in vivo, mouse (male C57BL). The following applies: for Lewis lung carcinoma growth delay, Mean Days: NSAID days 4-18; for Increase of growth delay by addition of UPHS: drug + UPHS vs drug. As for the experimental part:
The Lewis lung tumor was carried in male C57BL mice (Taconic Laboratories, Germantown, N.Y.). For the experiments, 2×10^6 tumor cells prepared from a brei of several stock tumors were implanted subctaneously into the legs of male mice aged 8-10 weeks. […] Animals bearing Lewis lung tumors were treated daily with intraperitoneal Mino (10 mg/kg), Diflun (15 mg/kg) or Sulin (15 mg/kg) on days 4-18 following tumor implantation. When the tumors had reached a volume of approximately 100 mm^3 (day 7 after tumor cell implantation), cytotoxic therapy was initiated.
Therapy consisted of treatment with an antitumor alkylating agent, an antitumor antimetabolite, a non-steroidal anti-inflammatory drug (NSAID) and/or UPHS. […] CTX therapy consisted of three successive 150 mg/kg CTX doses administered by intraperitoneal injections on days 7, 9 and 11. BCNU therapy consisted of three successive 15 mg/Kg BCNU doses administered by intraperitoneal injections on days 7, 9 and 11. Therapy with the antimetabolite 5-fluorouracil(5-FU) consisted of 4 successive 40 mg/kg 5-FU doses administered by intraperitoneal injections daily on days 7 to 11. The 5-FU was purchased from Sigma Chemical Co., St. Louis, Mo. Fourteen doses of 10 mg/kg of NSAID were administered daily by intraperitoneal injections on days 4 to 18. UPHS was injected into the tail vein in 8 ml/kg doses daily on days 7-11.
The progress of each tumor was measured thrice weekly until it had reached a volume of 500 mm^3. Tumor growth delay was calculated as the number of days required for each treated tumor to reach a volume of 500 mm^3 as compared with untreated control tumors. Each treatment group comprised six animals and the experiment was repeated three times.
On the twentieth day after the subcutaneous tumor implantation, the delay in Lewis Lung Carcinoma tumor growth was evaluated. Tumor growth delay data is presented as the mean value ±SE calculated for the treatment group as compared with the control group.

In test [1] the test system is subcutaneous 9L gliosarcoma. As to the kind of experiment: Subcutaneous 9L gliosarcoma tumor growth delay. In kind it is in vivo, rat (male Fischer 344). To be noted: for Subcutaneous 9L Tumor Growth Delay, Mean Days: Table III, days to 500 mm^3 vs control (19.5 ± 0.5 days), CDDP 8 mg/kg day 7, BCNU 3 x 15, CTX or IFOS 3 x 100 mg/kg, UPHS 8 ml/kg; for Increase in tumor growth delay by prior administration of UPHS: UPHS + drug vs drug alone; for Effectiveness against subcutaneous 9L tumors: relative statement among BCNU, CTX, CDDP, IFOS. As for the experimental part:
(§1) The 9L gliosarcoma (9L) cells were obtained as a gift of 9L/SF gliosarcoma cells from Dr. Dennis Dean, University of California, San Francisco. These cells were maintained in culture in .varies.-MEM (Grand Island Biological Co., Grand Island, N.Y.) and supplemented with 10% fetal bovine serum (Sterile Systems, Inc., Logan, Utah) and with antibiotics. The 9L cells (4×10^4) in 10 μL of media without serum were implanted intracranially in male Fischer 344 rats (Taconic Farms, Germantown, N.Y.) weighing 200-250 gm on day 0. Each rat was anesthetized with sodium pentobarbital. A midline scalp incision was made and a hole was bored through the skull with 23 gauge needle at a point 2 mm lateral to the midline. The cell suspension was injected into the right frontal lobe at a depth of 3 mm from the dural surface. The needle was removed and the hole filled with dental cement. The scalp was sealed with a surgical clip. Two days later 9L cells (2×10^6) were implanted subcutaneously into the flank of each animal. When the tumors were approximately 100 mm^3 in volume, 7 days after tumor cell implantation, 8 ml/kg of UPHS was injected via the tail vein. After injecting the UPHS, administration of chemotherapeutic agents was initiated. […] BCNU therapy consisted of three 15 mg/kg BCNU doses administered by intraperitoneal injection days 7, 9 and 11. CTX and ifosfamide (IFOS) therapy consisted of three 100 mg/kg CTX or IFOS doses administered by intraperitoneal injection on days 7, 9 and 11. For the BCNU, CTX and IFOS therapies, UPHS was intravenously administered prior to each chemotherapeutic agent injection on days 7, 9 and 11. The IFOS was purchased from the Dana-Farber Cancer Institute. Survival of animals was monitored daily. Animals that were moribund or unable to reach food or water were killed by CO2 inhalation.
The progress of each subcutaneous tumor was measured 3 times/week until it reached a volume of 500 mm^3. Tumor growth delay was calculated as the number of days for each individual tumor to reach 500 mm^3 compared with untreated controls. Each treatment group had 4 animals and the experiment was repeated twice. Days of tumor growth delay are the mean ±SE for the treatment group compared with the control.

Test [2] deals with intracranial 9L gliosarcoma. As to the kind of experiment: Life span of rats with intracranial 9L gliosarcoma. The class given is in vivo, rat (male Fischer 344). The following applies: for % Increased from Control (life span) / Survival Days: Table II; for % Increased from Control (life span) / Increase in life span with UPHS prior to the drug therapy: vs untreated control; for Survival Days: control 26 ± 2.2 days, CDDP 8 mg/kg day 7, BCNU 3 x 15, CTX or IFOS 3 x 100 mg/kg days 7, 9, 11, UPHS 8 ml/kg; for Significance of increase in life span, drug alone: 25% or more is therapeutically significant; for Effectiveness against intracranial 9L tumors: relative statement among BCNU, CTX, CDDP, IFOS. Here is the method:
as §1
The effect of the treatments on the growth of the intracranial tumor was determined by the increase in life span of treated groups compared with the untreated controls. A percentage increase in life span of 25% or more is therapeutically significant.

Where [3] appears, read: WITH UPHS (8 ml/kg daily days 7-11), CDDP or PAM 10 mg/kg, CTX 3 x 150, BCNU 3 x 15, 5-FU 40 mg/kg.
Setting [4] is: WITHOUT UPHS, CDDP or PAM 10 mg/kg day 7, CTX 3 x 150, BCNU 3 x 15 mg/kg days 7, 9, 11, 5-FU 40 mg/kg.
Where [5] appears, read: intracranial (life span) and subcutaneous (growth delay) 9L tumors.

Molecules are shown by their SMILES.

On to `O=NN(CCCl)C(=O)NCCCl` [BCNU, N,N-bis(2-chloroethyl)-N-nitrosourea], for which the “Lewis lung carcinoma growth delay, Mean Days” value with Lewis lung carcinoma (setting [3]) was determined as 5.3 ± 0.5 days. Besides, the “Lewis lung carcinoma growth delay, Mean Days” value in the test with Lewis lung carcinoma (setting [4]) was 3.6 ± 0.4 days. Also, in the test with Lewis lung carcinoma, the “Increase of growth delay by addition of UPHS” value (shortened to “Increase of growth delay”) is reported as “also enhanced, to a lesser degree”. For the same molecule, in test [1], the “Subcutaneous 9L Tumor Growth Delay, Mean Days” value worked out at 5.8 ± 0.5 days; the “Increase in tumor growth delay by prior administration of UPHS” value turned out to be 1.3 fold; the “Effectiveness against subcutaneous 9L tumors” value is reported as “least effective against subcutaneously growing 9L tumors”. Moreover, in test [2], the “% Increased from Control (life span)” value was 22%; the “Survival Days” value is recorded as 31.6 days; the “Increase in life span with UPHS prior to the drug therapy” value (“Increase in life span with UPHS prior” for short) came to 38%; the “Significance of increase in life span, drug alone” value (from here on “Significance of increase”) is reported as “did not reach significance”. The “Effectiveness against intracranial 9L tumors” value in test [2] is recorded as “moderately effective against the intracranial 9L tumors”. In addition, the “Increase in therapeutic response upon addition of UPHS” value in test [2] (rat, in vivo, sc) is “improved to a greater degree, as determined by increase in life span, against the intracranial tumor than against the subcutaneous tumor”.
`N.N.[Cl][Pt][Cl]` [CDDP, cis-diaminodichloroplatinum(II)]: in the test on Lewis lung carcinoma (setting [3]), the “Lewis lung carcinoma growth delay, Mean Days” value was determined as 5.7 ± 0.4 days. Moreover, the “Lewis lung carcinoma growth delay, Mean Days” value in the test on Lewis lung carcinoma (setting [4]) was found to be 4.5 ± 0.3 days. Further, the “Increase of growth delay” value with Lewis lung carcinoma is given as “also enhanced, to a lesser degree”. Also, in test [1], the “Subcutaneous 9L Tumor Growth Delay, Mean Days” value came to 9.4 ± 0.8 days; the “Effectiveness against subcutaneous 9L tumors” value was “very effective against both subcutaneous and intracranial 9L tumors”. Also, the “Effect of UPHS on tumor growth delay produced by drug” value in test [1] (UPHS prior to single dose of CDDP) is listed as “no substantial effect on the tumor growth delay”. In test [2], the “% Increased from Control (life span)” value is 29%; the “Survival Days” value is recorded as 33.6 days; the “Increase in life span with UPHS prior” value was 46%; the “Significance of increase” value was “significant increase in life span”. Further, the “Effectiveness against intracranial 9L tumors” value in test [2] was “very effective against both subcutaneous and intracranial 9L tumors”. Also, the “Increase in therapeutic response upon addition of UPHS” value in test [2] (setting [5]) is “improved to a greater degree, as determined by increase in life span, against the intracranial tumor than against the subcutaneous tumor”.
On to `O=P1(N(CCCl)CCCl)NCCCO1` (stereo not shown) [CTX, Cyclophosphamide], for which the “Lewis lung carcinoma growth delay, Mean Days” value with Lewis lung carcinoma (setting [3]) stood at 43.1 ± 2.9 days. For the same molecule, in the test with Lewis lung carcinoma (setting [4]), the “Lewis lung carcinoma growth delay, Mean Days” value amounted to 21.5 ± 1.7 days. For the same molecule, in the test with Lewis lung carcinoma, the “Increase of growth delay” value was “more than two-fold”. Also, the “Tumor growth delay relative to other drugs” value in the test on Lewis lung carcinoma (vs CDDP, PAM, BCNU or 5-FU) was “substantially longer than that resulting from CDDP, PAM, BCNU or 5-FU”. Moreover, in test [1], the “Subcutaneous 9L Tumor Growth Delay, Mean Days” value is 9.1 ± 0.7 days; the “Increase in tumor growth delay by prior administration of UPHS” value was determined as 1.5 fold; the “Effectiveness against subcutaneous 9L tumors” value is listed as “very effective treatments for subcutaneously growing 9L tumors”. Also, in test [2], the “% Increased from Control (life span)” value stood at 20%; the “Survival Days” value came to 31.3 days; the “Increase in life span with UPHS prior” value turned out to be 43%; the “Significance of increase” value is recorded as “did not reach significance”. Moreover, the “Effectiveness against intracranial 9L tumors” value in test [2] was “least effective treatments for intracranial 9L tumors”. Besides, in test [2] (setting [5]), the “Increase in therapeutic response upon addition of UPHS” value is on record as “greatest increases in therapeutic response upon addition of UPHS”.
Turning to `N[C@@H](Cc1ccc(N(CCCl)CCCl)cc1)C(=O)O` [PAM, Melphalan], the “Lewis lung carcinoma growth delay, Mean Days” value with Lewis lung carcinoma (setting [3]) worked out at 6.8 ± 0.4 days; in the test with Lewis lung carcinoma (setting [4]), 2.7 ± 0.3 days. Besides, the “Increase of growth delay” value in the test on Lewis lung carcinoma is reported as “more than two-fold”.
